Experimental data published in PubChem BioAssay AID1963968 (Molecular Pharmacology Branch, DTP, NCI, 2024).

System: 945468-187-T-J3-PDC spheroids with HUVEC/MSC, viability
Assay: Anticancer human tumor 945468-187-T-J3-PDC patient-derived rectal carcinoma cell line growth inhibition [PI3K]
Conditions: for IC50: curve of first compound; for viability, T/C: stronger effect = lower value
Outline: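 Tumor cells were combined with HUVEC and MSCs into spheroids, then dosed with PI3K-inhibitor combinations over half-log ranges capped near clinical Cmax or 10 microM.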

[1] = second compound 0.0316 µM, first compound 0.0316 µM
[2] = second compound 0.0316 µM, first compound 0.1 µM
[3] = second compound 0.0316 µM, first compound 0.316 µM
[4] = second compound 0.0316 µM, first compound 1 µM
[5] = second compound 0.0316 µM, first compound 3.16 µM
[6] = second compound 0.0316 µM, first compound 10 µM
[7] = second compound 0.1 µM, first compound 0.0316 µM
[8] = second compound 0.1 µM, first compound 0.1 µM
[9] = second compound 0.1 µM, first compound 0.316 µM
[10] = second compound 0.1 µM, first compound 1 µM
[11] = second compound 0.1 µM, first compound 3.16 µM
[12] = second compound 0.1 µM, first compound 10 µM
[13] = second compound 0.316 µM, first compound 0.0316 µM
[14] = second compound 0.316 µM, first compound 0.1 µM
[15] = second compound 0.316 µM, first compound 0.316 µM
[16] = second compound 0.316 µM, first compound 1 µM
[17] = second compound 0.316 µM, first compound 3.16 µM
[18] = second compound 0.316 µM, first compound 10 µM
[19] = second compound 1 µM, first compound 0.0316 µM
[20] = second compound 1 µM, first compound 0.1 µM
[21] = second compound 1 µM, first compound 0.316 µM
[22] = second compound 1 µM, first compound 1 µM
[23] = second compound 1 µM, first compound 3.16 µM
[24] = second compound 1 µM, first compound 10 µM
[25] = second compound 3.16 µM, first compound 0.0316 µM
[26] = second compound 3.16 µM, first compound 0.1 µM
[27] = second compound 3.16 µM, first compound 0.316 µM
[28] = second compound 3.16 µM, first compound 1 µM
[29] = second compound 3.16 µM, first compound 3.16 µM
[30] = second compound 3.16 µM, first compound 10 µM
[31] = second compound 10 µM, first compound 0.0316 µM
[32] = second compound 10 µM, first compound 0.1 µM
[33] = second compound 10 µM, first compound 0.316 µM
[34] = second compound 10 µM, first compound 1 µM
[35] = second compound 10 µM, first compound 3.16 µM
[36] = second compound 10 µM, first compound 10 µM
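Further: spheroids exposed to agents for 7 days before viability read.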
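Wherever viability, T/C is given: 100% = DMSO vehicle control viability.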

## CC1(C)CCC(CN2CCN(c3ccc(C(=O)NS(=O)(=O)c4ccc(NCC5CCOCC5)c([N+](=O)[O-])c4)c(Oc4cnc5[nH]ccc5c4)c3)CC2)=C(c2ccc(Cl)cc2)C1 + CC(Nc1ncnc2nc[nH]c12)c1cc2cccc(Cl)c2c(=O)n1-c1ccccc1
Second compound 0.0316 µM
  IC50: > 10 µM
Second compound 0.1 µM
  IC50: > 10 µM
Second compound 0.316 µM
  IC50: > 10 µM
Second compound 1 µM
  IC50: > 10 µM
Second compound 3.16 µM
  IC50: > 10 µM
Second compound 10 µM
  IC50: > 10 µM
[1]
  viability, T/C: 99.2%
[2]
  viability, T/C: 91.9%
[3]
  viability, T/C: 95.7%
[4]
  viability, T/C: 96%
[5]
  viability, T/C: 117%
[6]
  viability, T/C: 114%
[7]
  viability, T/C: 94.4%
[8]
  viability, T/C: 95.8%
[9]
  viability, T/C: 98.7%
[10]
  viability, T/C: 102%
[11]
  viability, T/C: 105%
[12]
  viability, T/C: 106%
[13]
  viability, T/C: 111%
[14]
  viability, T/C: 106%
[15]
  viability, T/C: 104%
[16]
  viability, T/C: 118%
[17]
  viability, T/C: 113%
[18]
  viability, T/C: 104%
[19]
  viability, T/C: 100%
[20]
  viability, T/C: 94%
[21]
  viability, T/C: 92.6%
[22]
  viability, T/C: 98.6%
[23]
  viability, T/C: 110%
[24]
  viability, T/C: 110%
[25]
  viability, T/C: 100%
[26]
  viability, T/C: 107%
[27]
  viability, T/C: 95.4%
[28]
  viability, T/C: 109%
[29]
  viability, T/C: 115%
[30]
  viability, T/C: 98.2%
[31]
  viability, T/C: 105%
[32]
  viability, T/C: 95.6%
[33]
  viability, T/C: 97.3%
[34]
  viability, T/C: 103%
[35]
  viability, T/C: 120%
[36]
  viability, T/C: 93.9%

## C[C@@H](NC(=O)c1ncnc(N)c1Cl)c1ncc(C(=O)Nc2cc(C(F)(F)F)c(Cl)cn2)s1 + CC(Nc1ncnc2nc[nH]c12)c1cc2cccc(Cl)c2c(=O)n1-c1ccccc1
Second compound 0.0316 µM
  IC50: > 10 µM
Second compound 0.1 µM
  IC50: > 10 µM
Second compound 0.316 µM
  IC50: > 10 µM
Second compound 1 µM
  IC50: > 10 µM
Second compound 3.16 µM
  IC50: > 10 µM
Second compound 10 µM
  IC50: > 10 µM
[1]
  viability, T/C: 98%
[2]
  viability, T/C: 87.3%
[3]
  viability, T/C: 95.9%
[4]
  viability, T/C: 101%
[5]
  viability, T/C: 104%
[6]
  viability, T/C: 105%
[7]
  viability, T/C: 106%
[8]
  viability, T/C: 109%
[9]
  viability, T/C: 97.7%
[10]
  viability, T/C: 96.5%
[11]
  viability, T/C: 94.7%
[12]
  viability, T/C: 103%
[13]
  viability, T/C: 95.7%
[14]
  viability, T/C: 115%
[15]
  viability, T/C: 108%
[16]
  viability, T/C: 103%
[17]
  viability, T/C: 98.7%
[18]
  viability, T/C: 96.6%
[19]
  viability, T/C: 101%
[20]
  viability, T/C: 101%
[21]
  viability, T/C: 103%
[22]
  viability, T/C: 96.2%
[23]
  viability, T/C: 102%
[24]
  viability, T/C: 86.5%
[25]
  viability, T/C: 104%
[26]
  viability, T/C: 105%
[27]
  viability, T/C: 92.7%
[28]
  viability, T/C: 106%
[29]
  viability, T/C: 96.4%
[30]
  viability, T/C: 96%
[31]
  viability, T/C: 101%
[32]
  viability, T/C: 99.7%
[33]
  viability, T/C: 92.5%
[34]
  viability, T/C: 108%
[35]
  viability, T/C: 98.8%
[36]
  viability, T/C: 93.3%
